# Assay: Stability of cannabinoid compounds and Vitamin E components in Beverage 1 (AB White) by LCMSMS
# Format: physicochemical
# Details: for Stability of Plant-Derived Cannabinoid Compounds in AB White, 8° C.: AB White stored at 8° C.; for Stability of Plant-Derived Cannabinoid Compounds in AB White, 21-25° C.: AB White stored at 21-25° C.
structure (smiles),measurement,setting,value
"CCCCCc1cc2c(c(O)c1C(=O)O)[C@@H]1C=C(C)CC[C@H]1C(C)(C)O2 [D9 THCA, delta-9-tetrahydrocannabinolic acid]","Stability of Plant-Derived Cannabinoid Compounds in AB White, 8° C.",0 days,0.950 µg/mL
same,"Stability of Plant-Derived Cannabinoid Compounds in AB White, 8° C.",1 days,0.956 µg/mL
same,"Stability of Plant-Derived Cannabinoid Compounds in AB White, 8° C.",2 days,0.954 µg/mL
same,"Stability of Plant-Derived Cannabinoid Compounds in AB White, 8° C.",3 days,0.934 µg/mL
same,"Stability of Plant-Derived Cannabinoid Compounds in AB White, 8° C.",5 days,0.956 µg/mL
same,"Stability of Plant-Derived Cannabinoid Compounds in AB White, 8° C.",8 days,0.949 µg/mL
same,"Stability of Plant-Derived Cannabinoid Compounds in AB White, 8° C.",9 days,0.937 µg/mL
same,"Stability of Plant-Derived Cannabinoid Compounds in AB White, 8° C.",10 days,0.960 µg/mL
same,"Stability of Plant-Derived Cannabinoid Compounds in AB White, 8° C.",11 days,0.929 µg/mL
same,"Stability of Plant-Derived Cannabinoid Compounds in AB White, 8° C.",12 days,0.942 µg/mL
same,"Stability of Plant-Derived Cannabinoid Compounds in AB White, 8° C.",15 days,0.944 µg/mL
same,"Stability of Plant-Derived Cannabinoid Compounds in AB White, 8° C.",16 days,0.932 µg/mL
same,"Stability of Plant-Derived Cannabinoid Compounds in AB White, 8° C.",17 days,0.951 µg/mL
same,"Stability of Plant-Derived Cannabinoid Compounds in AB White, 8° C.",18 days,0.950 µg/mL
same,"Stability of Plant-Derived Cannabinoid Compounds in AB White, 8° C.",19 days,0.959 µg/mL
same,"Stability of Plant-Derived Cannabinoid Compounds in AB White, 8° C.",22 days,0.960 µg/mL
same,"Stability of Plant-Derived Cannabinoid Compounds in AB White, 8° C.",23 days,0.931 µg/mL
same,"Stability of Plant-Derived Cannabinoid Compounds in AB White, 8° C.",24 days,0.926 µg/mL
same,"Stability of Plant-Derived Cannabinoid Compounds in AB White, 8° C.",25 days,0.957 µg/mL
same,"Stability of Plant-Derived Cannabinoid Compounds in AB White, 8° C.",26 days,0.956 µg/mL
same,"Stability of Plant-Derived Cannabinoid Compounds in AB White, 8° C.",29 days,0.939 µg/mL
same,"Stability of Plant-Derived Cannabinoid Compounds in AB White, 8° C.",30 days,0.955 µg/mL
same,"Stability of Plant-Derived Cannabinoid Compounds in AB White, 8° C.",60 days,0.914 µg/mL
same,"Stability of Plant-Derived Cannabinoid Compounds in AB White, 8° C.",90 days,0.948 µg/mL
same,"Stability of Plant-Derived Cannabinoid Compounds in AB White, 8° C.",120 days,0.932 µg/mL
same,"Stability of Plant-Derived Cannabinoid Compounds in AB White, 8° C.",150 days,0.952 µg/mL
same,"Stability of Plant-Derived Cannabinoid Compounds in AB White, 8° C.",180 days,0.941 µg/mL
same,"Stability of Plant-Derived Cannabinoid Compounds in AB White, 8° C.",210 days,0.923 µg/mL
same,"Stability of Plant-Derived Cannabinoid Compounds in AB White, 8° C.",240 days,0.932 µg/mL
same,"Stability of Plant-Derived Cannabinoid Compounds in AB White, 8° C.",270 days,0.933 µg/mL
same,"Stability of Plant-Derived Cannabinoid Compounds in AB White, 8° C.",300 days,0.939 µg/mL
same,"Stability of Plant-Derived Cannabinoid Compounds in AB White, 8° C.",330 days,0.909 µg/mL
same,"Stability of Plant-Derived Cannabinoid Compounds in AB White, 8° C.",360 days,0.913 µg/mL
same,"Stability of Plant-Derived Cannabinoid Compounds in AB White, 8° C.",390 days,0.923 µg/mL
same,"Stability of Plant-Derived Cannabinoid Compounds in AB White, 8° C.",420 days,0.916 µg/mL
same,"Stability of Plant-Derived Cannabinoid Compounds in AB White, 8° C.",450 days,0.923 µg/mL
same,"Stability of Plant-Derived Cannabinoid Compounds in AB White, 8° C.",480 days,0.905 µg/mL
same,"Stability of Plant-Derived Cannabinoid Compounds in AB White, 8° C.",510 days,0.873 µg/mL
same,"Stability of Plant-Derived Cannabinoid Compounds in AB White, 8° C.",540 days,0.877 µg/mL
same,"Stability of Plant-Derived Cannabinoid Compounds in AB White, 8° C.",570 days,0.872 µg/mL
same,"Stability of Plant-Derived Cannabinoid Compounds in AB White, 21-25° C.",0 days,0.950 µg/mL
same,"Stability of Plant-Derived Cannabinoid Compounds in AB White, 21-25° C.",1 days,0.960 µg/mL
same,"Stability of Plant-Derived Cannabinoid Compounds in AB White, 21-25° C.",2 days,0.938 µg/mL
same,"Stability of Plant-Derived Cannabinoid Compounds in AB White, 21-25° C.",3 days,0.920 µg/mL
same,"Stability of Plant-Derived Cannabinoid Compounds in AB White, 21-25° C.",5 days,0.958 µg/mL
same,"Stability of Plant-Derived Cannabinoid Compounds in AB White, 21-25° C.",8 days,0.937 µg/mL
same,"Stability of Plant-Derived Cannabinoid Compounds in AB White, 21-25° C.",9 days,0.926 µg/mL
same,"Stability of Plant-Derived Cannabinoid Compounds in AB White, 21-25° C.",10 days,0.935 µg/mL
same,"Stability of Plant-Derived Cannabinoid Compounds in AB White, 21-25° C.",11 days,0.949 µg/mL
same,"Stability of Plant-Derived Cannabinoid Compounds in AB White, 21-25° C.",12 days,0.935 µg/mL
same,"Stability of Plant-Derived Cannabinoid Compounds in AB White, 21-25° C.",15 days,0.948 µg/mL
same,"Stability of Plant-Derived Cannabinoid Compounds in AB White, 21-25° C.",16 days,0.921 µg/mL
same,"Stability of Plant-Derived Cannabinoid Compounds in AB White, 21-25° C.",17 days,0.919 µg/mL
same,"Stability of Plant-Derived Cannabinoid Compounds in AB White, 21-25° C.",18 days,0.928 µg/mL
same,"Stability of Plant-Derived Cannabinoid Compounds in AB White, 21-25° C.",19 days,0.917 µg/mL
same,"Stability of Plant-Derived Cannabinoid Compounds in AB White, 21-25° C.",22 days,0.947 µg/mL
same,"Stability of Plant-Derived Cannabinoid Compounds in AB White, 21-25° C.",23 days,0.924 µg/mL
same,"Stability of Plant-Derived Cannabinoid Compounds in AB White, 21-25° C.",24 days,0.927 µg/mL
same,"Stability of Plant-Derived Cannabinoid Compounds in AB White, 21-25° C.",25 days,0.948 µg/mL
same,"Stability of Plant-Derived Cannabinoid Compounds in AB White, 21-25° C.",26 days,0.921 µg/mL

# Reference: patent publication US20260130395A1, “Water Dispersible Botanical Compositions” (Aquila Black Limited, priority 2021, published 2026)
